This note sets out measurements from article PMC7718890 (Scientific Reports, 2020).

The term IC50 denotes the point on the concentration scale where inhibition reaches its midpoint.

The target of the experiment is CarD·RNAP binding (CarD association with RPo) (Mycobacterium tuberculosis, UniProt P9WGY7+P9WGY9+P9WJG3, D68C).
Where [1] appears, read: read-out: CarD-BODIPY-FL assay CCG sample IC50.
[2] abbreviates: read-out: CarD-BODIPY-FL assay Powder sample IC50.

SMILES strings stand for the structures. Read-outs that look alike come from different tables or passages of the source.

In the case of `CCC(=O)Nc1cccc2c(NC(=O)CC)cccc12` [CCG-53654], the IC50 was 15 µM under setting [1] and 188 µM under setting [2].
The matching figures for `NC(=O)c1ccc(CC(=O)c2ccc(Cl)cc2)cc1` [CCG-251660]: 106 µM and 37 µM.
As to `O=C(NC(=O)N1CCCC1)C1CCN(c2cnc3ccccc3n2)CC1` [CCG-52363], the IC50 under setting [1] amounted to 60 µM and the IC50 under setting [2] is 200 µM.
Taken in the same sequence, the figures for `CN(C)c1ncnc(Oc2ccc(Cl)cc2)c1[N+](=O)[O-]` [CCG-247600] were 250 µM and 132 µM.
The matching figures for `COC(=O)c1noc(C)c1C(=O)/C=C/N1CCCCC1` [CCG-42210]: 106 µM and 85 µM.
Taken in the same sequence, the figures for `CC(=O)Nc1ccc(NC(=O)c2nccnc2C(=O)O)cn1` [CCG-52573] were 78 µM and 160 µM.
On to `CC(=O)c1sc2nsc(SCCN3CCCC3)c2c1N` [CCG-239496], for which the IC50 is, setting by setting: under setting [1], 90 µM; under setting [2], 47 µM.
As for `Cc1cc2c(NC(=O)Nc3ccccc3)cccc2nn1` [CCG-237488], under setting [1], the IC50 came to 25 µM.
Turning to `O=C(O)c1ccc(-c2nc3ccc(-c4ccc5nc(-c6ccc(C(=O)O)cc6)[nH]c5c4)cc3[nH]2)cc1` [CCG-249580], the half-inhibitory concentration (IC50) runs as follows: under setting [1], 263 µM; under setting [2], 202 µM.
On to `CC(=O)Nc1ccc(NC(=O)c2ccccc2C(=O)O)cn1` [CCG-52160], for which the half-inhibitory concentration (IC50) is, setting by setting: under setting [1], 37 µM; under setting [2], 680 µM.
